# Test results reported in article PMC6117091, “The C. difficile clnRAB operon initiates adaptations to the host environment in response to LL-37” (PLoS Pathogens, 2018).
# Read-outs that look alike come from different tables or passages of the source. Where a SMILES comes first, the peptide text is derived from it. Bridges are numbered along the chain shown (N, C = ends). Where no end group is shown, it is not given here. [ ]: non-standard residue; d: D form. The star is where a group is joined. X1 = CC[C@H](C)CCCCC(=O)*; Dab = NCC[C@H](N)C(=O)O
# Assays:
# [1] = biological target: LL-37 (human cathelicidin) (human)
# [2] = system: clnR expression in C. difficile 630Δerm; experiment: clnR expression by qRT-PCR after exposure to antimicrobials (induction specificity); settings: for Induction of clnR transcription (in words): concentrations of Table 1; for Relative clnR expression: BHIS, mean of three replicates ± SEM
# [3] = system: C. difficile clnAB mutant (MC935); experiment: Minimum inhibitory concentration (MIC); type: cell-based, Clostridioides difficile; settings: Mueller-Hinton Broth, 24 h, 37°C, anaerobic, ~5 x 10^5 CFU/ml
# Procedure: (§1) Minimum inhibitory concentrations (MIC) were determined as previously described. […] Briefly, overnight cultures of C. difficile strains were diluted 1:50 in Mueller-Hinton Broth (Difco) and grown to OD600 of 0.45 (~5 x 10^7 CFU/ml). Cultures were then diluted 1:10 in MHB and seeded at a further 1:10 dilution in a round-bottom 96-well plate prepared with serial dilutions of antimicrobials for a starting concentration of ~5 x 10^5 CFU/ml. Plates were incubated for 24 h at 37°C in the anaerobic chamber.
# [4] = system: C. difficile clnR mutant (MC885); experiment: Minimum inhibitory concentration (MIC); type: cell-based, Clostridioides difficile; settings: Mueller-Hinton Broth, 24 h, 37°C, anaerobic, ~5 x 10^5 CFU/ml
# Procedure: as §1
# C. difficile 630Δerm = experiment: Minimum inhibitory concentration (MIC); type: cell-based, Clostridioides difficile; settings: Mueller-Hinton Broth, 24 h, 37°C, anaerobic, ~5 x 10^5 CFU/ml
# Procedure: as §1
# [5] = Clostridioides difficile, read-out: MIC
molecule,measurement,setting,value
Recombinant N-terminally His-tagged ClnR (natural protein),Kd,[1],83 nM
"CN[C@H](CC(C)C)C(=O)N[C@H]1C(=O)N[C@@H](CC(N)=O)C(=O)N[C@H]2C(=O)N[C@H]3C(=O)N[C@H](C(=O)N[C@H](C(=O)O)c4cc(O)cc(O)c4-c4cc3ccc4O)[C@H](O)c3ccc(c(Cl)c3)Oc3cc2cc(c3O[C@@H]2O[C@H](CO)[C@@H](O)[C@H](O)[C@H]2O[C@H]2C[C@](C)(N)[C@H](O)[C@H](C)O2)Oc2ccc(cc2Cl)[C@H]1O [Vancomycin, vancomycin]",Induction of clnR transcription (in words),[2],none of the other cell-surface-active antimicrobials tested
same,MIC,[3]; [5],1 µg/mL
same,MIC,[4]; [5],1 µg/mL
same,MIC,C. difficile 630Δerm; [5],1 µg/mL
Lysozyme,Relative clnR expression,"[2]; 1 mg/ml, normalized to 630Δerm without antimicrobials",1.1 ± 0.3
same,Induction of clnR transcription (in words),[2],none of the other cell-surface-active antimicrobials tested
mCRAMP,Relative clnR expression,"[2]; 2 μg/ml, normalized to 630Δerm in BHIS without antimicrobials",111.4 ± 27.3
same,Induction of clnR transcription (in words),[2],also induced
"CC1(C)S[C@@H]2[C@H](NC(=O)[C@H](N)c3ccccc3)C(=O)N2[C@H]1C(=O)O [Ampicillin, ampicillin]",Induction of clnR transcription (in words),[2],none of the other cell-surface-active antimicrobials tested
same,MIC,[3]; [5],4 µg/mL
same,MIC,[4]; [5],4 µg/mL
same,MIC,C. difficile 630Δerm; [5],4 µg/mL
"nisin (ITSISLCTPGCKTGALMGCNMKTATCHCSIHVSK; also: lantibiotic, modified residues and rings not given here; UniProt P13068 24-57, looked up)",Relative clnR expression,"[2]; 7.5 μg/ml, normalized to 630Δerm without antimicrobials",1.1 ± 0.4
same,Induction of clnR transcription (in words),[2],none of the other cell-surface-active antimicrobials tested
same,MIC,[3],360 µg/mL
same,MIC,[4],360 µg/mL
same,MIC,C. difficile 630Δerm,360 µg/mL
"CC[C@H](C)CCCCC(=O)N[C@@H](CCN)C(=O)N[C@H](C(=O)N[C@@H](CCN)C(=O)N[C@H]1CCNC(=O)[C@H]([C@@H](C)O)NC(=O)[C@H](CCN)NC(=O)[C@H](CCN)NC(=O)[C@H](CC(C)C)NC(=O)[C@@H](Cc2ccccc2)NC(=O)[C@H](CCN)NC1=O)[C@@H](C)O [Polymyxin B, polymyxin B] (X1-[Dab]T[Dab][Dab][Dab][dF]L[Dab][Dab]T; lactam 4-C (inferred); N-terminus assumed)",Relative clnR expression,"[2]; 200 μg/ml, normalized to 630Δerm without antimicrobials",1.2 ± 0.2
same,Induction of clnR transcription (in words),[2],none of the other cell-surface-active antimicrobials tested
same,MIC,[3],500 µg/mL
same,MIC,[4],500 µg/mL
same,MIC,C. difficile 630Δerm,500 µg/mL
